Results as given in US10457665B2, “1,4-di-(4-methylthiophenyl)-3-phtaloylazetidine-2-one and the derivatives thereof” (Universite De Nantes, priority 2015, dated 2019).

Tests used:
Assay type in all cases: in vivo, mouse
obese C57BL/6 mice [1] = assay: Open-field test after 30-day chronic treatment; settings: end of 30-day treatment, 10 mg/kg i.p.
Method: Locomotor activity of the mice was measured at the conclusion of the chronic treatment with rimonabant or molecule JM-00.266 (i.e., compound IA) by an infrared monitoring system. To that end, the animals were placed individually in 43×43 cm plexiglass boxes (MED associates) for 20 min. Two series of 16 pulsed infrared beams were spaced 2.5 cm apart on opposite walls to record ambulatory X-Y movements at 100 ms resolution. The centre was defined as a central 32×32 cm square. In addition to locomotor activity information, this test makes it possible to predict anxiolytic activity in response to novelty or to an anxiogenic environment. The variables measured in the open field are total ambulatory activity (in cm), the number of entries and the time spent in the central area as well as the distance traversed in the centre divided by the total distance traversed.

obese C57BL/6 mice [2] = assay: Glucose tolerance test after 43-day oral treatment with low-fat diet; settings: 43 days, orally 10 mg/kg once per day
Method: (§1) In order to evaluate the long-term effects of the treatment on blood glucose control, glucose tolerance was evaluated at the end of the treatment period. The mice received an intraperitoneal injection of glucose (2 g/kg) then blood glucose was measured at times t=0, t=15 min, t=30 min, t=45 min, t=60 min, t=90 min, and t=120 min post-glucose injection using a My Life Pura blood glucose monitor (Ypsomed, Paris, France).

wild-type C57BL/6 mice [3] = assay: Acute oral glucose tolerance test (OGTT) in wild-type mice; settings: 10 mg/kg i.p. 10 min before 2 g/kg oral glucose load, wild-type C57Bl/6J mice
Method: In order to evaluate the short-term effects of the rimonabant-like molecules, as well as their selectivity for CB1R, wild-type C57BL/6 mice and CB1R −/− mice underwent an oral glucose tolerance test (OGTT at 2 g/kg) 10 min after i.p. injection of vehicle or of JM-02.003 or JM-00.266 (i.e., compound IA) (10 mg/kg). Blood glucose was measured at times t=0, t=15 min, t=30 min, t=45 min, t=60 min, t=90 min, and t=120 min post-oral. glucose administration using a Contour®TS blood glucose monitor (ref. 81574201, Bayer HealthCare) and reactive strips (ref. 81574274, Bayer HealthCare).

[4] = Plasma assay of triglycerides; settings: context of obesity; stated in conclusion only
Method: (§2) Total cholesterol, triglycerides and hepatic markers were assayed by a Dimension Vista Intelligent Lab System (Siemens, Saint-Denis, France) using suitable reagents.

[5] = tested on: liver, subcutaneous and visceral adipose tissue of obese mice; assay: Gene expression of markers (RT-PCR) in liver and adipose tissues after oral treatment with food
obese C57BL/6 mice [6] = assay: Glucose tolerance test after oral treatment simultaneously with food; settings: 28 days, administered at the same time as the meal
Method: as §1

[7] = tested on: liver, subcutaneous and visceral adipose tissue of obese mice; assay: Gene expression of markers (RT-PCR) in liver and adipose tissues after oral treatment with food; remark: listed apart in the source
Method: Total messenger RNA (mRNA) extraction was carried out with Tri-Reagent (Euromedex, France) and consecutive synthesis of complementary DNA (cDNA) was carried out from 1 μg of mRNA with the Bio-Rad iScripttm Reverse Transcription super mix kit (Bio-Rad, France). Gene expression was evaluated by semi-quantitative real-time reverse transcription-polymerase chain reaction (RT-PCR). The primers used, described below, were selected using the Primer3Plus software (http://www.bioinformatics.nl/cgi-25 bin/primer3plus/primer3plus.cgi) and synthesized by MWG-Biotech. Semi-quantification of gene expression was obtained by taking into account the efficacy of each PCR and standardization with the reporter gene TATA box-binding protein (TBP).
The impact of the treatment on endocannabinoid system activity is evaluated by measuring the gene expression 1) of receptors CB1R and CB2R 2) of the endocannabinoid synthesis enzyme, N-acyl phosphatidylethanolamine phospholipase D (NAPE-PLD) and 3) of the endocannabinoid degradation enzyme, fatty acid amide hydrolase (FAAH).
Fatty acid synthase (FAS), stearoyl-CoA desaturase 1 (SCD-1) and glycerol-phosphate acyl-transferase (GPAT2) are enzymes whose expression variations reflect lipogenic activity.
Glucose-6-phosphatase (G6P) and the glucose transporters GLUT2 and GLUT4 in the liver are used herein as neoglucogenesis markers.
F4/80 is a mature macrophage marker.
Tumour necrosis factor-alpha (TNF-a) is a proinflammatory cytokine affecting the regulation of numerous biological processes such as immune functions, cell differentiation and energy metabolism.

wild-type C57BL/6 mice [8] = assay: Plasma insulin during OGTT (ELISA); settings: 10 mg/kg i.p.
Method: Assay of plasma insulin was carried out using the ALPCO™ Mouse Insulin ELISA Kit (ref. AKRIN-011T, ALPCO Diagnostics) according to the supplier's instructions. Blood samples were collected during an OGTT at t=0, t=30, t=60, t=120 min post-administration of the oral bolus of glucose (2 g/kg).

obese C57BL/6 mice [9] = assay: Plasma liver markers after 30-day chronic treatment
Excerpt: In order to determine the long-term effects of the molecules of interest, C57BL/6 mice made obese by means of a high-sucrose, high-fat diet (HSHF: 30% crude fat, 33.5% carbohydrates; ref. E15126-34; ref. E15126-34, SSNIFF, Soest, Germany) for 20 weeks. These mice then received daily an i.p. injection of rimonabant, JM-00.266 (i.e., compound IA) or vehicle for a period of 30 days. In parallel, weight and food intake were monitored every two days following the beginning of the treatment.
as §2

[10] = obese mice, 10 mg/kg i.p. daily, 30 days

## CSc1ccc(C2C(N3C(=O)c4ccccc4C3=O)C(=O)N2c2ccc(SC)cc2)cc1 (stereo not drawn) [JM-00.266, trans-1,4-di-(4-methylthiophenyl)-3-N-phthaloyl-azetidine-2-one]
Obese C57BL/6 mice [1]
  motor activity: no effect
  time spent in the centre of the arena / anxiety state: not altered
Obese C57BL/6 mice [2]
  glucose tolerance versus VEH+LF and VEH+HF: better glucose tolerance
wild-type C57BL/6 mice [3]
  glucose tolerance compared with vehicle: improves glucose tolerance
[4]
  blood triglycerides: decreasing blood triglycerides
[5]
  G6P expression: reduction
  GLUT4 expression: reduction
Obese C57BL/6 mice [6]
  glucose tolerance versus vehicle: better glucose tolerance
[7]; adipose tissue
  TNF-a expression: trend towards the reduction
  expression of FAS: reduction
[7]; any of the tissues tested
  expression of CB R: not modified
  expression of FAAH: not modified
[7]; liver
  expression of GPAT: reduction
  expression of SCD-1: reduction
[7]; liver and adipose tissues
  F4/80 expression: clearly decreased
[7]; tissues of treated animals
  CB2R expression: lower
[7]; tissues tested, 28 d oral with food
  expression of NAPE-PLD: reduction
wild-type C57BL/6 mice [8]; versus vehicle
  blood insulin at t=30 min: lower
wild-type C57BL/6 mice [8]; wild-type mice
  insulin production induced by glucose administration: not stimulated
Obese C57BL/6 mice [9]; 30-day chronic treatment
  liver damage markers compared with the control: does not cause an increase
Obese C57BL/6 mice [9]; chronic administration
  liver toxicity: no liver toxicity
Obese C57BL/6 mice [9]; [10]
  ALPI plasma concentration: 47.3 ± 3.6
  ALT plasma concentration: 34.3 ± 10.5 U/L
  AST plasma concentration: 60.8 ± 13.4 U/L
  Gamma GT plasma concentration: <3 U/L
  Total bilirubin plasma concentration: <2 µmol/L
